In brackets after ≈: the same amount, converted by molar mass.
Experiments:
[1] = test system: Staphylococcus aureus MSSA; experiment: in vitro bacteriostatic activity, agar dilution MIC; assay type: cell-based
[2] = test system: Staphylococcus epidermidis MSSE; experiment: as above; assay type: cell-based; settings: Staphylococcus epidermidis
Enterococcus faecalis = experiment: as above; assay type: cell-based; settings: Enterococcus faecalis
Enterococcus faecium = experiment: as above; assay type: cell-based; settings: Enterococcus faecium
[3] = test system: Staphylococcus aureus MRSA; experiment: as above; assay type: cell-based
[4] = test system: Staphylococcus epidermidis MRSE; experiment: as above; assay type: cell-based
[5] = test system: Staphylococcus epidermidis ATCC 12228; experiment: in vitro bacteriostatic activity, agar dilution MIC, quality control strain; assay type: cell-based; settings: Staphylococcus epidermidis, ATCC12228
Staphylococcus aureus = experiment: in vitro bacteriostatic activity, agar dilution MIC, quality control strains; assay type: cell-based; settings: Staphylococcus aureus, ATCC29213
[6] = test system: Methicillin-resistant Staphylococcus aureus ATCC 43300; experiment: in vivo protection of model mice infected with methicillin-resistant Staphylococcus aureus; set-up: species or system KM mice; settings: 4×10^5 units/kg, intraperitoneal injection once a day, within 14 days
Experimental: Tested strains' virulence assay: Methicillin-resistant Staphylococcus aureus was cultured in incubator at 37°C to reach exponential phase of growth, and then diluted with normal saline to obtain different gradient concentrations of bacterial liquid. Different concentrations of bacterial liquid were taken and mixed with equivalent 10% gastric mucin. Bacterial liquid was administrated to mice at 0.5 ml/20 g by intraperitoneal injection, and 5% gastric mucin was used as control. Under a premise of no control mice death, the death rate of mice within 14 days was recorded, and the minimum bacterial volumes leading to death of whole mice were measured, i.e. the minimum lethal dose (MLD) of bacterial liquid.
Pretesting of effective dose in vivo: Infection model mice infected by Methicillin-resistant Staphylococcus aureus were randomly divided into a few of groups (four mice per group), and a graded dose of each bacterial liquid was separately administrated to mice in each test group at one time per day. Moreover, administration of test drug was done one day ahead of schedule, and toxic substances were not eliminated until 0.5 h after administration on the second day. The death status of mice within 14 days was observed, to determine the dosage used in the formal experiment.
KM mice (grade SPF), half male and half female, weighing 18-22 g were randomly divided into […] groups with ten mice for each group, i.e. the group receiving vancomycin hydrochloride for injection; the groups receiving high, medium, and low doses of patchoulol; blank group; model group; and control group receiving gastric mucin. All of the mice were administrated by intraperitoneal injection once a day. The mice were administrated one day in advance and then attacked after 0.5h of administration on the second day, i.e. intraperitoneally injected with methicillin-resistant Staphylococcus aureus liquid containing 5% gastric mucin. Amongst, mice in the model group were given normal saline instead of test drug; mice in the blank group were not given drugs and attacked; mice in the gastric mucin control group were not given test drug, but only injected with 5% gastric mucin without bacteria.
The death status of mice within 14 days after injection of bacteria was observed, and its survival rate was recorded.

## CN[C@H](CC(C)C)C(=O)N[C@H]1C(=O)N[C@@H](CC(N)=O)C(=O)N[C@H]2C(=O)N[C@H]3C(=O)N[C@H](C(=O)N[C@H](C(=O)O)c4cc(O)cc(O)c4-c4cc3ccc4O)[C@H](O)c3ccc(c(Cl)c3)Oc3cc2cc(c3O[C@@H]2O[C@H](CO)[C@@H](O)[C@H](O)[C@H]2O[C@H]2C[C@](C)(N)[C@H](O)[C@H](C)O2)Oc2ccc(cc2Cl)[C@H]1O [vancomycin]
[1]; Staphylococcus aureus MSSA 12-11
  MIC: 1 µg/mL (≈ 0.69 µM)
[1]; Staphylococcus aureus MSSA 12-13
  MIC: 1 µg/mL (≈ 0.69 µM)
[1]; Staphylococcus aureus MSSA 12-14
  MIC: 1 µg/mL (≈ 0.69 µM)
[1]; Staphylococcus aureus MSSA 12-15
  MIC: 1 µg/mL (≈ 0.69 µM)
[1]; Staphylococcus aureus MSSA 12-16
  MIC: 1 µg/mL (≈ 0.69 µM)
[1]; Staphylococcus aureus MSSA 12-17
  MIC: 1 µg/mL (≈ 0.69 µM)
[1]; Staphylococcus aureus MSSA 12-18
  MIC: 1 µg/mL (≈ 0.69 µM)
[1]; Staphylococcus aureus MSSA 12-19
  MIC: 1 µg/mL (≈ 0.69 µM)
[1]; Staphylococcus aureus MSSA 12-21
  MIC: 1 µg/mL (≈ 0.69 µM)
[1]; Staphylococcus aureus, MSSA
  MIC: 1 µg/mL (≈ 0.69 µM)
[2]; Staphylococcus epidermidis MSSE 12-11
  MIC: 1 µg/mL (≈ 0.69 µM)
[2]; Staphylococcus epidermidis MSSE 12-12
  MIC: 2 µg/mL (≈ 1.38 µM)
[2]; Staphylococcus epidermidis MSSE 12-13
  MIC: 1 µg/mL (≈ 0.69 µM)
[2]; Staphylococcus epidermidis MSSE 12-14
  MIC: 2 µg/mL (≈ 1.38 µM)
[2]; Staphylococcus epidermidis MSSE 12-15
  MIC: 2 µg/mL (≈ 1.38 µM)
[2]; Staphylococcus epidermidis MSSE 12-16
  MIC: 0.5 µg/mL (≈ 0.345 µM)
[2]; Staphylococcus epidermidis MSSE 12-17
  MIC: 0.5 µg/mL (≈ 0.345 µM)
[2]; Staphylococcus epidermidis MSSE 12-18
  MIC: 0.25 µg/mL (≈ 0.173 µM)
[2]; Staphylococcus epidermidis MSSE 12-19
  MIC: 1 µg/mL (≈ 0.69 µM)
[2]; Staphylococcus epidermidis MSSE 12-20
  MIC: 1 µg/mL (≈ 0.69 µM)
Enterococcus faecalis; ATCC29212, Enterococcus faecalis ATCC 29212
  MIC: 2 µg/mL (≈ 1.38 µM)
Enterococcus faecalis; ATCC51299, Enterococcus faecalis (high endurance) ATCC 51299
  MIC: 2 µg/mL (≈ 1.38 µM)
Enterococcus faecalis; Enterococcus faecalis 12-11
  MIC: > 128 µg/mL
Enterococcus faecalis; Enterococcus faecalis 12-12
  MIC: 1 µg/mL (≈ 0.69 µM)
Enterococcus faecalis; Enterococcus faecalis 12-13
  MIC: 2 µg/mL (≈ 1.38 µM)
Enterococcus faecalis; Enterococcus faecalis 12-14
  MIC: 1 µg/mL (≈ 0.69 µM)
Enterococcus faecalis; Enterococcus faecalis 12-17
  MIC: 2 µg/mL (≈ 1.38 µM)
Enterococcus faecalis; Enterococcus faecalis 12-18
  MIC: 1 µg/mL (≈ 0.69 µM)
Enterococcus faecalis; Enterococcus faecalis 12-19
  MIC: 2 µg/mL (≈ 1.38 µM)
Enterococcus faecalis; Enterococcus faecalis 12-20
  MIC: 2 µg/mL (≈ 1.38 µM)
Enterococcus faecalis; Enterococcus faecalis 12-21
  MIC: 1 µg/mL (≈ 0.69 µM)
Enterococcus faecalis; Enterococcus faecalis 12-22
  MIC: 1 µg/mL (≈ 0.69 µM)
Enterococcus faecium; ATCC33186, Enterococcus faecium ATCC 33186
  MIC: 1 µg/mL (≈ 0.69 µM)
Enterococcus faecium; Enterococcus faecium 12-7
  MIC: 0.5 µg/mL (≈ 0.345 µM)
Enterococcus faecium; Enterococcus faecium 12-8
  MIC: 0.5 µg/mL (≈ 0.345 µM)
Enterococcus faecium; Enterococcus faecium 12-9
  MIC: 1 µg/mL (≈ 0.69 µM)
Enterococcus faecium; Enterococcus faecium 12-10
  MIC: 4 µg/mL (≈ 2.76 µM)
Enterococcus faecium; Enterococcus faecium 12-11
  MIC: 0.5 µg/mL (≈ 0.345 µM)
Enterococcus faecium; Enterococcus faecium 12-12
  MIC: 1 µg/mL (≈ 0.69 µM)
Enterococcus faecium; Enterococcus faecium 12-13
  MIC: 4 µg/mL (≈ 2.76 µM)
Enterococcus faecium; Enterococcus faecium 12-14
  MIC: 0.5 µg/mL (≈ 0.345 µM)
Enterococcus faecium; Enterococcus faecium 12-15
  MIC: 1 µg/mL (≈ 0.69 µM)
Enterococcus faecium; Enterococcus faecium 12-16
  MIC: 1 µg/mL (≈ 0.69 µM)
[3]; ATCC 43300 / MRSA, Methicillin-resistant Staphylococcus aureus ATCC 43300
  MIC: 1 µg/mL (≈ 0.69 µM)
[3]; MRSA, Staphylococcus aureus MRSA 12-11
  MIC: 2 µg/mL (≈ 1.38 µM)
[3]; MRSA, Staphylococcus aureus MRSA 12-12
  MIC: 1 µg/mL (≈ 0.69 µM)
[3]; MRSA, Staphylococcus aureus MRSA 12-13
  MIC: 1 µg/mL (≈ 0.69 µM)
[3]; MRSA, Staphylococcus aureus MRSA 12-14
  MIC: 1 µg/mL (≈ 0.69 µM)
[3]; MRSA, Staphylococcus aureus MRSA 12-15
  MIC: 1 µg/mL (≈ 0.69 µM)
[3]; MRSA, Staphylococcus aureus MRSA 12-16
  MIC: 2 µg/mL (≈ 1.38 µM)
[3]; MRSA, Staphylococcus aureus MRSA 12-17
  MIC: 1 µg/mL (≈ 0.69 µM)
[3]; MRSA, Staphylococcus aureus MRSA 12-18
  MIC: 1 µg/mL (≈ 0.69 µM)
[3]; MRSA, Staphylococcus aureus MRSA 12-19
  MIC: 2 µg/mL (≈ 1.38 µM)
[3]; MRSA, Staphylococcus aureus MRSA 12-20
  MIC: 1 µg/mL (≈ 0.69 µM)
[4]; Staphylococcus epidermidis MRSE 12-11
  MIC: 8 µg/mL (≈ 5.52 µM)
[4]; Staphylococcus epidermidis MRSE 12-12
  MIC: 0.5 µg/mL (≈ 0.345 µM)
[4]; Staphylococcus epidermidis MRSE 12-15
  MIC: 2 µg/mL (≈ 1.38 µM)
[4]; Staphylococcus epidermidis MRSE 12-16
  MIC: 2 µg/mL (≈ 1.38 µM)
[4]; Staphylococcus epidermidis MRSE 12-17
  MIC: 2 µg/mL (≈ 1.38 µM)
[4]; Staphylococcus epidermidis MRSE 12-18
  MIC: 2 µg/mL (≈ 1.38 µM)
[4]; Staphylococcus epidermidis MRSE 12-19
  MIC: 2 µg/mL (≈ 1.38 µM)
[4]; Staphylococcus epidermidis MRSE 12-20
  MIC: 2 µg/mL (≈ 1.38 µM)
[4]; Staphylococcus epidermidis MRSE 12-21
  MIC: 2 µg/mL (≈ 1.38 µM)
[4]; Staphylococcus epidermidis MRSE 12-22
  MIC: 1 µg/mL (≈ 0.69 µM)
[5]
  MIC: 1 µg/mL (≈ 0.69 µM)
Staphylococcus aureus
  MIC: 0.5 µg/mL (≈ 0.345 µM)
[6]; 10 animals
  Survival number: 10
[6]
  Survial rate (%): 100%

— patent EP2826473A1, “NOVEL USE OF PATCHOULOL” (Chengdu Huasun Group Inc., Ltd., priority 2012, dated 2013)
